According to PMC11245370, “3-Position Biaryl Endochin-like Quinolones with Enhanced Antimalarial Performance” (ACS Infectious Diseases, 2024):
Read-outs that look alike come from different tables or passages of the source.

Experiments:
[1] = test system: P. falciparum drug-sensitive D6 strain; experiment: SYBR Green I antiplasmodial assay, D6 strain; format: cell-based; details: Plasmodium falciparum, read-out: P. falciparum IC50 values, D6
Protocol: (§1) All of this information is stored in a database with information relating to chemical structure, physical chemical properties, cross resistance patterns, mammalian cell cytotoxicity, enzyme inhibitor profiles, and synthesis details. Pharmacological data and in vivo efficacy data are also stored in the database for molecules of particular interest. […] We synthesized the compound in an initial batch size of about 800 mg as described above. […] Fluorescence readings were captured with a fluorescence plate reader and processed by nonlinear regression analysis using the GraphPad Prism software to provide IC50 values for each determination. Stock solutions were freshly prepared daily in DMSO in glass vials.
(§2) Laboratory strains of P. falciparum were cultured in human erythrocytes by standard methods. The parasites were grown in culture medium with fresh human erythrocytes maintained at 2% hematocrit at 37 °C in low-oxygen conditions (5% O2, 5% CO2, 90% N2). […] Cultures were maintained at less than 10% parasitemia by transfer of infected cells to fresh erythrocytes and culture medium every 3 or 4 days.
(§3) SYBR green I assay. In vitro antiplasmodial activity was assessed using a published SYBR Green I fluorescence-based method.[20] The drugs were added to 96-well plates using twofold serial dilutions in complete medium. […] Asynchronous P. falciparum parasites were diluted with uninfected erythrocytes and added to the wells to give a final culture volume of 100 μL at 2% hematocrit and 0.2% parasitemia. […] The parasites were then lysed by adding 100 μL of SYBR green I lysis buffer containing 0.2 μL/ml SYBR green I dye (10,000×) in 20 mM Tris (pH 7.5), 5 mM EDTA, 0.008% (wt/vol) saponin, and 0.08% (v/v) Triton X-100. The plates were incubated at room temperature for an hour in the dark. […] If the IC50 value fell outside of the initially tested range, then the range was adjusted up or down, and the assay was repeated twice.

[2] = test system: P. falciparum multidrug-resistant Dd2 strain; experiment: microbe, parasite or virus in culture; format: cell-based; details: Plasmodium falciparum, DD2, 72 h, read-out: P. falciparum IC50 values, Dd2
Protocol: as §1, §2, §3

[3] = test system: P. falciparum atovaquone-resistant clinical isolate Tm90-C2B; experiment: SYBR Green I antiplasmodial assay, Tm90-C2B; format: cell-based; details: Plasmodium falciparum, read-out: P. falciparum IC50 values, Tm90-C2B
Protocol: as §1, §2, §3

[4] = test system: P. yoelii blood-stage infection; details: mice; for blood stage in vivo efficacy, 4 day Peters test results, NRD (nonrecrudescence dose): oral gavage days 1-4, followed to day 30; for blood stage in vivo efficacy, 4 day Peters test results, ED50 / blood stage in vivo efficacy, 4 day Peters test results, ED90: oral gavage days 1-4, parasitemia day 5, prodrugs dosed on molar equivalency to parent
Protocol: (§4) On day 5, a drop of blood was taken from the tail, and a blood smear was prepared, fixed with methanol, and stained with Giemsa. The operator then examined the stained smear microscopically to determine percent parasitemia. […] In this model, animals were inoculated exactly as for the 4 day test on day 0; however, drug was administered only on day 1, whereas smears were made on day 5 and again weekly thereafter for animals that remained aparasitemic. Animals that remained aparasitemic on day 30 were scored as cures.
The P. yoelii 4 day test monitors suppression of patent infection in female CF1 mice. The test began with the inoculation (iv) of parasitized erythrocytes (3.5 × 10^4P. yoelli) (from a donor animal) on the first day of the experiment (D0). […] Initially, the 3-biaryl-ELQs were tested at doses of 0.0025, 0.005, 0.01, 0.03, 0.1, 0.3, 1.0, and 10 mg/kg/day, including a vehicle-only (PEG400) control. After completion of drug treatment, a blood sample was collected (by pricking the tail vein) for determination of parasite burden beginning on the day after the final dose (D5). Percent parasitemia was assessed by direct microscopic analysis of Giemsa-stained blood smears. […] Animals with observable parasitemia following the experiment were euthanized; animals cleared of parasites from the bloodstream were observed daily with assessment of parasitemia performed weekly until day 30, at which point the animals were scored as cured of infection. […] Nonlinear regression analysis was used for objective determination of ED50’s and ED90’s from the accumulated data as well as the nonrecrudescence dose (NRD). The 4 day test protocol was reviewed and approved by the local IACUC board at the Portland VA Medical Center. Experiments were performed with four mice per group to ensure statistical accuracy.

[5] = test system: P. yoelii blood-stage infection; experiment: Single-dose cure of blood-stage murine malaria; format: in vivo, Plasmodium yoelii; details: lowest single oral dose curing all four mice, day 30
Protocol: as §4
The effectiveness of selected 3-biaryl ELQs and prodrugs was assessed vs the blood-stage infection for single-dose cures. Mice were infected iv with 3.5 × 10^4P. yoelii infected RBCs as described for the 4 day test above. Drug administration occurred on the day after inoculation (day 1). Test agents were dissolved in PEG-400 and administered ig once. On the fifth day, blood films were prepared, and % parasitemia was assessed. Animals remaining parasite-free for 30 days after drug administration were considered cured. The initial dosing range was 0.25, 0.5, 1, 3, and 10 mg/kg, including a control. Experiments were performed with four mice per group to ensure statistical accuracy. The reported parameter for these studies is the lowest single dose that provides a cure to all four animals in the group.

[6] = ELQ-300, active metabolite of ELQ-331; comparison value, no reference given; cited from earlier work
[7] = target: T1, human liver cytochrome bc1 complex (Homo sapiens, UniProt P00156); set-up: method as in Nilsen et al., 2013; details: ref Nilsen et al., 2013; cited from earlier work
[8] = HepG2 cytotoxicity / mitochondrial toxicity (TiterGlo ATP, galactose medium); details: human
Protocol: HepG2 was routinely cultured in DMEM containing 10% fetal calf serum and 100 IU/mL penicillin and 100 μg/mL streptomycin (complete medium). For studies to investigate the potential for mitochondrial toxicity by selected 3-biaryl-ELQs, the medium contained galactose rather than glucose to force the cells to produce ATP through oxidative phosphorylation, which in turn makes them sensitive to mitochondrial toxicants.[36] […] After this period, the culture medium was removed, and the cells were shifted to galactose-containing medium with test drugs at concentrations ranging from 0 to 10 μM. Drug dilutions were prepared from DMSO stocks into galactose-containing medium. […] After incubation, the contents of each well were removed, and 25 μL of TiterGlo II reagent mix containing luciferase, detergent, and luciferin was added to each well along with 25 μL of culture medium. […] At this point, the plates were read on a luminometer (SpectraMax iD3 iD5Multi-Mode Microplate Reader), and the data were processed to yield the percent decrease in ATP production relative to no-drug control values. These values reflect the potential damage caused by mitochondrial toxicants due to reduced intracellular ATP levels caused by interference with the human mitochondrial electron transport chain. Assays were set up in triplicate.

[9] = test system: P. falciparum ELQ-300-resistant D1 clone; experiment: microbe, parasite or virus in culture; format: cell-based; details: Plasmodium falciparum, 72 h, read-out: P. falciparum IC50 values, D1
[10] = Metabolic stability in liver microsomes, mouse; format: in vitro ADME; details: pooled mouse liver microsomes, pH 7.4; mouse liver microsomes 0.5 mg/mL, NADPH, 37 °C, 45 min, 1 μM
Protocol: (§5) […]. Samples were taken over the interval of 45 min and analyzed by LC–MS/MS for the presence of test compound. Ketanserin served as an internal standard for the metabolic rate of a drug with known intermediate stability. […].
(§6) The drug was incubated at 37 °C and 1 μM concentration in murine liver microsomes (Corning) for 45 min at a protein concentration of 0.5 mg/mL in potassium phosphate buffer at pH 7.4 containing 1.0 mM EDTA. The metabolic reaction was initiated by addition of NADPH and quenched with ice-cold acetonitrile at 0, 5, 15, 25, and 45 min.

[11] = Metabolic stability in liver microsomes, rat; format: in vitro ADME; details: rat, pH 7.4
[12] = Metabolic stability in liver microsomes, human; format: in vitro ADME; details: human, pH 7.4
Protocol: as §5, §6

[13] = Pharmacokinetics after single dose of ELQ-598; format: in vivo; details: for k el: CD1, in vivo; for k el / Tmax / AUC(0-inf) / Cmax / half-life: mouse plasma; for AUC(0-inf) / Cmax / half-life: CD1
Protocol: Animals had free access to food and water during the study. Following drug administration, the animals were manually restrained at the designated time points, and 100 μL of blood was withdrawn from the facial vein for semiserial sampling into heparinized tubes. Blood samples were placed on ice and centrifuged (2000g, 5 min, 4 °C) to obtain plasma. The plasma was mixed with 10% formic acid (FA) in water [plasma/10% FA (v/v = 10:1)]. […] At the outset of the study, 18 animals were randomly separated into two different groups (po and iv) of nine animals each. Blood samples were taken from three animals at each time point such that the same group of the animals was sampled at […] throughout the experiment for both po and iv arms. […] Dichlofenac was used as an internal standard.
MW is the molecular weight. The terminal elimination rate constant kel was estimated by linear least-squares regression analysis of the terminal log-linear portion of the plasma concentration–time curves by the software.

[14] = target: T1, human liver cytochrome bc1 complex; experiment: Human cytochrome bc1 assay (liver mitochondrial preparation)
Protocol: All use of human tissue was approved by the OHSU IRB. Approximately 10 g of human liver tissue was obtained intraoperatively and placed in ice-cold PBS containing 5 mM glucose. [Note: The specimen was obtained from grossly normal tissue that was resected around the margins of a tumor as part of the standard surgical treatment for hepatic tumors.] Liver was homogenized using a razor blade followed by a Dounce homogenizer. HALT Protease Inhibitor Cocktail (Pierce) was added per the manufacturer’s instructions. A crude mitochondrial fraction was prepared by differential centrifugation as described in Renault et al.[35] The final pellet was resuspended in storage buffer (50 mM tricine, 100 mM KCl, 2 mM NaN, 2.0% dodecyl-beta-D-maltoside, 30% glycerol, pH 8.0). Aliquots of this mitochondrial preparation were frozen in a dry ice–ethanol bath and stored at −80 °C until use.
Two microliters of mitochondrial preparation was resuspended in the assay buffer (50 mM tricine, 100 mM KCl, 2 mM NaN3, 0.1% dodecyl-beta-D-maltoside). […] Antimycin A was dissolved in ethanol as a 1 mM stock. Decylubiquinone was reduced to decylubiquinol with an excess of NaBH4, and the excess NaBH4 was subsequently quenched with hydrochloric acid. […] The rate of the nonenzymatic reaction of cytochrome c and decylubiquinol was measured separately in the absence of mitochondrial preparation and found to be insignificant. […]

[15] = test system: P. falciparum drug-sensitive D6 strain; details: earlier work of the authors, no reference given; cited from earlier work
[16] = test system: P. falciparum multidrug-resistant Dd2 strain; details: earlier work of the authors, no reference given; cited from earlier work
[17] = test system: P. falciparum atovaquone-resistant clinical isolate Tm90-C2B; details: earlier work of the authors, no reference given; cited from earlier work
[18] = earlier work of the authors, no reference given; cited from earlier work
[19] = male, single ELQ-598 dose 0.3 mg/kg IV
[20] = male, single ELQ-598 dose 10 mg/kg PO (PEG400)
[21] = male, single ELQ-598 dose 10 mg/kg PO
[22] = mouse, single ELQ-598 dose 0.3 mg/kg IV

COc1cc2[nH]c(C)c(-c3ccc(Oc4ccc(OC(F)(F)F)cc4)cc3)c(=O)c2cc1Cl [ELQ-300]
IC50 ([1]; D6, 72 h): 3.3 nM
IC50 [2]: 4.2 nM
IC50 ([3]; TM90, 72 h): 2.5 nM
blood stage in vivo efficacy, 4 day Peters test results, NRD (nonrecrudescence dose) [4]: 1.0 mg/kg/day
blood stage in vivo efficacy, 4 day Peters test results, ED50 [4]: 0.02 mg/kg/day
blood stage in vivo efficacy, 4 day Peters test results, ED90 [4]: 0.06 mg/kg/day
blood stage in vivo efficacy, single dose cure [5]: >25 mg/kg/day
elimination T1/2 [6]: 14.6 h
EC50 [7]: > 10000 nM
IC50 at 24 h ([8]; HepG2 cells): > 10000 nM

O=C1C(O)=C([C@H]2CC[C@H](c3ccc(Cl)cc3)CC2)C(=O)c2ccccc21 [Atovaquone, reference compound]
IC50 ([1]; D6, 72 h, SYBR Green, mean (95% confidence interval of fit)): 0.08 nM
IC50 [2]: 0.4 nM
IC50 ([3]; TM90, 72 h, SYBR Green, mean (95% confidence interval of fit)): > 1000 nM
IC50 [9]: 0.4 nM
blood stage in vivo efficacy, 4 day Peters test results, NRD (nonrecrudescence dose) [4]: 10 mg/kg/day
blood stage in vivo efficacy, 4 day Peters test results, ED50 [4]: 0.1 mg/kg/day
blood stage in vivo efficacy, single dose cure [5]: 10 mg/kg/day
EC50 [7]: 460 nM

COc1cc2[nH]c(C)c(-c3ccc(-c4ccc(OC(F)(F)F)cc4)cc3)c(=O)c2cc1Cl [ELQ-596, 6-Chloro-7-methoxy-2-methyl-3-(4′-(trifluoromethoxy)-[1,1′-biphenyl]-4-yl)quinolin-4(1H)-one]
IC50 ([1]; D6, 72 h): 1.4 nM
IC50 [2]: 1.6 nM
IC50 ([3]; TM90, 72 h): 0.7 nM
half-life at 1 μM [10]: > 66.7 h
half-life at 1 μM [11]: > 66.7 h
half-life at 1 μM [12]: > 66.7 h
blood stage in vivo efficacy, 4 day Peters test results, NRD (nonrecrudescence dose) [4]: 0.3 mg/kg/day
blood stage in vivo efficacy, 4 day Peters test results, ED50 [4]: 0.01 mg/kg/day
blood stage in vivo efficacy, 4 day Peters test results, ED90 [4]: 0.021 mg/kg/day
k el [13, 19]: 6.94e-06 s⁻¹
k el [13, 20]: 4.17e-06 s⁻¹
Tmax ([13]; male, CD1, mouse, plasma, iv, 0.3 mg/kg, single ELQ-598 dose 0.3 mg/kg IV, read-out: Tmax): 4 h
Tmax ([13]; male, CD1, mouse, plasma, po, 10 mg/kg, single ELQ-598 dose 10 mg/kg PO (PEG400), read-out: Tmax): 4 h
bioavailability ([13]; male, CD1, mouse, plasma, po, 10 mg/kg, read-out: F (oral bioavailability)): 73%
Vd ([13]; male, CD1, plasma, mouse, single ELQ-598 dose 0.3 mg/kg IV, read-out: Vdss): 0.78 L/kg
CL/F ([13]; male, CD1, plasma, mouse, single ELQ-598 dose 10 mg/kg PO, read-out: CL/F (converted)): 0.283 mL/min/kg
AUC(0-inf) [13, 19]: 12.2 µg·h/mL
Cmax [13, 19]: 303 ng/mL
half-life ([13]; male, single ELQ-598 dose 0.3 mg/kg IV, elimination): 27.4 h
AUC(0-inf) [13, 21]: 484 µg·h/mL
Cmax [13, 21]: 14.5 µM
Cmax [13, 20]: 6680 ng/mL
half-life ([13]; male, single ELQ-598 dose 10 mg/kg PO, apparent elimination): 45.7 h
Tmax ([13]; single ELQ-598 dose 0.3 mg/kg IV, 0.3 mg/kg): 2 h
CL/F [13, 22]: 0.333 mL/min/kg
Vdarea/F [13, 22]: 0.81 L/kg
Vdarea/F ([13]; mouse, single ELQ-598 dose 10 mg/kg PO): 1.11 L/kg
EC50 [14]: > 10000 nM
EC50 at 24 h [8]: > 10000 nM
IC50 at 24 h [8]: > 10000 nM

COc1cc2[nH]c(C)c(-c3ccc(Oc4cccc(OC(F)(F)F)c4)cc3)c(=O)c2cc1Cl [ELQ-307]
IC50 [15]: ≤ 0.03 nM
IC50 [16]: ≤ 0.03 nM
IC50 [17]: ≤ 0.03 nM
metabolic stability [18]: metabolically unstable
